Assay results from US20080103127A1, “METHODS FOR TREATING DISRUPTIVE BEHAVIOR DISORDERS” (priority 2006, published 2008).

Tested on: submissive rats
Test: Reduction of Submissive Behavior Model (RSBM) of depression, dominant-submissive rat food competition test
Assay type: in vivo, Sprague-Dawley rats
Text: In this study, the effects of COMPOUND #7 on dominant or submissive behavior in pairs of rats competing for food are examined. It has been shown that anti-manic drugs, including anticonvulsants, decrease dominance and antidepressant drugs reduce submissiveness. This model uses dominant behavior as a model of mania and submissive behavior as a model of depression. The dominance and submissiveness is defined in a competition test and measured as the relative success of two food-restricted rats to gain access to a feeder. Rats are randomly paired and placed in an apparatus allowing them to compete for a food reward. The dominant-submissive relationship develops over a 2-week period. The submissive or dominant animals in pairs selected after 2 weeks of training were treated orally […] (b.i.d.) with COMPOUND #7 at 3 or 30 mg/kg for 5 weeks. The partner of the drug-treated animal was treated with vehicle.
The objective of this study was to determine if COMPOUND #7 is active in the Reduction of Submissive Behavior Model (RSBM) of depression and the Reduction of Dominant Behavior Model (RDBM) of mania. Measurements were made at two doses (3 and 30 mg/kg) after oral twice a day (b.i.d.) administration. The effect of the drug in the RSBM was compared to the effect of fluoxetine (10 mg/kg) and vehicle (0.5% methylcellulose). The effect of the drug in the RDBM was compared with the effect of lithium (100 mg/kg) and vehicle (0.5% methylcellulose). The endpoints measured were the development of a significant reduction of submissive or dominant behavior and its time of onset.
The DSR developed by two rats competing for food uses the apparatus in FIG. 1. The methodology and equipment are described in several publications. (See, Malatynska E, Goldenberg R, Shuck L, Haque A, Zamecki P, Crites G, Schindler N, Knapp R J. Reduction of submissive behavior in rats: a test for antidepressant drug activity. Pharmacology 2002; 64:8; Malatynska E, Rapp R, Crites G. Dominant behavior measured in a competition test as a model of mania. In: International Behavioral Neuroscience Society Meeting, ed. IBNSCapri, Italy, 2002, p 26.; Bonnet U. Moclobemide: therapeutic use and clinical studies. CNS Drug Rev 2003; 9:97; Danysz W, Plaznik A, Kostowski W, Malatynska E, Jarbe T U, Hiltunen A J, Archer T. Comparison of desipramine, amitriptyline, zimeldine and alaproclate in six animal models used to investigate antidepressant drugs. Pharmacol Toxicol 1988; 62:42; Knapp R J, Goldenberg R, Shuck C, Cecil A, Watkins J, Miller C, Crites G, Malatynska E. Antidepressant activity of memory-enhancing drugs in the reduction of submissive behavior model. Eur J Pharmacol 2002; 440:27; Kostowski W, Malatynska E, Plaznik A, Dyr W, Danysz W. Comparative studies on antidepressant action of alprazolam in different animal models. Pol J Pharmacol Pharm 1986; 38, 471; Malatynska E, De Leon I, Allen D, Yamamura Hi. Effects of amitriptyline on GABA-stimulated ^36Cl^− uptake in relation to a behavioral model of depression. Brain Res Bull 1995; 37:53; Malatynska E, Kostowski W. The effect of antidepressant drugs on dominance behavior in rats competing for food. Pol J Pharmacol Pharm 1984; 36:531; Malatynska E, Kostowski W. Desipramine antagonizes clonidine-induced suppression of dominance in rats: possible involvement of amygdaloid nuclei. Pol J Pharmacol Pharm 1988; 40:357).
In the experiments described in this report Sprague-Dawley rats weighing 160 to 180 g were used. Testing for the development of a DSR between paired rats begins with the random assignment of rats into pairs. Rats from pairs are housed separately between test sessions with other animals in groups of four. The animals are food-deprived overnight with free access to water.
The test involves placing each member of a pair in opposite chambers of the testing apparatus. These chambers are connected through a narrow tunnel with a small container of sweetened milk at the center. […]

## NC(=O)OC[C@@H](O)c1ccccc1Cl [COMPOUND #7, carisbamate]
3 mg/kg b.i.d. p.o., 5 weeks, submissive rat treated, partner vehicle
  effect on submissive rat behavior: did not have any effect
30 mg/kg b.i.d. p.o.
  onset of increased competitiveness of submissive rats (time of treatment): 1 week
30 mg/kg b.i.d. p.o. vs fluoxetine 10 mg/kg i.p. once a day
  efficacy in submissive rats compared with fluoxetine: same efficacy as fluoxetine
30 mg/kg b.i.d. p.o., 5 weeks, submissive rat treated
  competitiveness of submissive rat compared to vehicle-treated submissive rats: significantly increased competitiveness
